The molecules below were run against T1, Renin (Homo sapiens, UniProt P00797) (assay: In vitro binding affinity was tested against purified human renin at pH 7.2).
T1 sequence (P00797 whole entry): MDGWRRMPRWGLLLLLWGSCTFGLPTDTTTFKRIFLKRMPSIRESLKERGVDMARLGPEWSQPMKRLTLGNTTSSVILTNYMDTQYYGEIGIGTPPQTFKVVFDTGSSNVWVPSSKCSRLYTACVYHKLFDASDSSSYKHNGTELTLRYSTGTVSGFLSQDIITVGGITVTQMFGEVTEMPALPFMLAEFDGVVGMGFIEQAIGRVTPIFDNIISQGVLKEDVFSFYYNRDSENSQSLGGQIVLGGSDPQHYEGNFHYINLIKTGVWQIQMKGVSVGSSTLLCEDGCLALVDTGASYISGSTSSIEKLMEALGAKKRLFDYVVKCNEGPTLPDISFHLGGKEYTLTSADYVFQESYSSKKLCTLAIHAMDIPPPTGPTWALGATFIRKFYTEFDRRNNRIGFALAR
Molecule `CCCCNC(=O)[C@H](C)C[C@H](O)[C@@H](N)C[C@H]1CC[C@H](CCCC(C)(C)C)CC1` has an IC50 of 4.3 µM.
`CCCCNC(=O)[C@H](C)C[C@H](O)[C@@H](N)C[C@@H]1CCC[C@@H](CCCC(C)(C)C)C1` was tested, and the IC50 was 0.3 µM.
`CCCCNC(=O)[C@H](C)C[C@H](O)[C@@H](N)CC1CCCC(CCCC(C)(C)C)C1` (stereo partly specified) showed an IC50 of 0.8 µM.
`CCCCNC(=O)[C@H](C)C[C@H](O)[C@@H](N)CC(C)(C)CCc1ccc(CO)c2ccccc12` showed an IC50 of 10 µM.
`CCCCNC(=O)[C@H](C)C[C@H](O)[C@@H](N)CC1CCCCC1` showed an IC50 of 30 µM.
`CCCCNC(=O)[C@H](C)C[C@H](O)[C@@H](N)CC(CC)(CC)CCc1cccc2ccccc12` was tested, and the IC50 was 2.7 µM.
`CCCCNC(=O)[C@H](C)C[C@H](O)[C@@H](N)C[C@@H]1CCC[C@H](CCCC(C)(C)C)C1` gave an IC50 of 2.9 µM.
`CCCCNC(=O)[C@H](C)C[C@H](O)[C@@H](N)CC(C)(C)CCc1ccc2ccccc2c1` was tested, and the IC50 was 3 µM.
`CCCCNC(=O)[C@H](C)C[C@H](O)[C@@H](N)CC(C)C` was tested, and the IC50 was over 100 µM.
`CCCCNC(=O)[C@H](C)C[C@H](O)[C@@H](N)CC(C)(C)CCc1ccc(CO)cc1` gave an IC50 of 79 µM.
`CCCCNC(=O)[C@H](C)C[C@H](O)[C@@H](N)CC(C)(C)CCc1cccc(CO)c1` was tested, and the IC50 was 58 µM.
Molecule `CCCCNC(=O)[C@H](C)C[C@H](O)[C@@H](N)CC(C)(C)CCCc1ccc2ccccc2c1` has an IC50 of 3.7 µM.
`CCCCNC(=O)[C@H](C)C[C@H](O)[C@@H](N)CC(C)(C)CCc1cccc2ccccc12` was tested, and the IC50 was 0.7 µM.
`CCCCNC(=O)[C@H](C)C[C@H](O)[C@@H](N)Cc1cccc(CCCC(C)(C)C)c1` was tested, and the IC50 was 13 µM.
For `CCCCNC(=O)[C@H](C)C[C@H](O)[C@@H](N)CC(C)(C)CCCc1cccc2ccccc12`, the IC50 was 2.1 µM.
In the case of `CCCCNC(=O)[C@H](C)C[C@H](O)[C@@H](N)Cc1ccc(OCc2ccccc2)cc1`, the IC50 is reported as 32 µM.
